According to patent US20260062422A1 (Halda Therapeutics OpCo, Inc., priority 2022, published 2026):

Tests used:
[1] = system: T-Rex 293 cell line SC3 cells lacking increased expression of androgen receptor protein; assay: Cellular growth inhibition, T-Rex 293 SC3 cells without doxycycline, CellTiter-Glo; type: cell-based; conditions: 72 h, T-Rex 293 SC3 cells not exposed to doxycycline, CellTiter-Glo 2.0
Method in brief: (§1)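 Luminescence read-out (CellTiter-Glo 2.0) after 72 h compound exposure; GI50 by four-parameter nonlinear regression, baseline set at zero luminescence. SC3 cells, a doxycycline-inducible wild-type AR clone of T-Rex 293, were cultured ±10 ng/mL doxycycline in charcoal-dextran FBS medium.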

[2] = system: T-Rex 293 cell line SC3 cells having increased expression of androgen receptor protein due to exposure to doxycycline; assay: Cellular growth inhibition, T-Rex 293 SC3 cells with doxycycline (androgen receptor induced), CellTiter-Glo; type: cell-based; conditions: 72 h, T-Rex 293 SC3 cells with 10 ng/mL doxycycline (increased androgen receptor expression)
Method in brief: as §1

T47D cells = assay: Cellular growth inhibition assay for T47D cells, CellTiter-Glo; type: cell-based, human; conditions: Homo sapiens, T47D, 72 h, 72 hours treatment, CellTiter-Glo 2.0 cell viability
Method in brief: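 Luminescence from CellTiter-Glo 2.0 after 72 h of compound exposure gives the viability signal. Cells grew in insulin-supplemented (0.2 units/mL) DMEM with 10% FBS and were treated one day after seeding at 0.5% DMSO. GI50 values come from four-parameter nonlinear regression.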

VCaP cells = assay: Cellular growth inhibition assay for VCaP cells, CellTiter-Glo; type: cell-based, human; conditions: Homo sapiens, VCaP, 72 h, 72 hours treatment, CellTiter-Glo 2.0
Method in brief: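 GI50 values come from four-parameter curve fits of luminescence data normalized to a zero baseline. Compound, in medium with 0.5% DMSO, was added one day after plating and left for 72 h before CellTiter-Glo 2.0 addition.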

Compound	GI50 (T47D cells)	GI50 (VCaP cells)	GI50 [1]	GI50 [2]
CCNC(=O)C[C@@H]1N=C(c2ccc(N3CCC(CN4CC(N(C)c5ncc(C(=O)N[C@H]6C(C)(C)[C@H](Oc7ccc(C#N)c(Cl)c7)C6(C)C)cn5)C4)CC3)cc2)c2c(sc(C)c2C)-n2c(C)nnc21 [Compound I-128]	1500 to 3000 nM	1500 to 3000 nM	> 3000 nM	> 3000 nM
Cc1sc2c(c1C)C(c1ccc(CCC3CCN(c4ncc(C(=O)N[C@H]5C(C)(C)[C@H](Oc6ccc(C#N)c(Cl)c6)C5(C)C)cn4)CC3)cc1)=N[C@@H](Cc1ncco1)c1nnc(C)n1-2 [Compound I-132]	< 500 nM	< 500 nM	> 3000 nM	< 500 nM
Cc1sc2c(c1C)C(c1ccc(CCCC3CCN(c4ncc(C(=O)N[C@H]5C(C)(C)[C@H](Oc6ccc(C#N)c(Cl)c6)C5(C)C)cn4)CC3)cc1)=NC(Cc1ncco1)c1nnc(C)n1-2 (stereo partly shown) [Compound I-133]	< 500 nM	< 500 nM	500 to 1500 nM	< 500 nM
Cc1sc2c(c1C)C(c1ccc(CCCCC3CCN(c4ncc(C(=O)N[C@H]5C(C)(C)[C@H](Oc6ccc(C#N)c(Cl)c6)C5(C)C)cn4)CC3)cc1)=NC(Cc1ncco1)c1nnc(C)n1-2 (stereo partly shown) [Compound I-135]	< 500 nM	< 500 nM	> 3000 nM	< 500 nM
Cc1sc2c(c1C)C(c1ccc(CN3CCC4(CCCN(c5ncc(C(=O)N[C@H]6C(C)(C)[C@H](Oc7ccc(C#N)c(Cl)c7)C6(C)C)cn5)C4)C3)cc1)=NC(Cc1ncco1)c1nnc(C)n1-2 (stereo partly shown) [Compound I-137]	< 500 nM	< 500 nM	500 to 1500 nM	< 500 nM
Cc1sc2c(c1C)C(c1ccc(CN3CC4(CCCN(c5ncc(C(=O)N[C@H]6C(C)(C)[C@H](Oc7ccc(C#N)c(Cl)c7)C6(C)C)cn5)C4)C3)cc1)=NC(Cc1ncco1)c1nnc(C)n1-2 (stereo partly shown) [Compound I-138]	500 to 1500 nM	< 500 nM	1500 to 3000 nM	< 500 nM
Cc1sc2c(c1C)C(c1ccc(CN3CC4(C3)CN(c3ncc(C(=O)N[C@H]5C(C)(C)[C@H](Oc6ccc(C#N)c(Cl)c6)C5(C)C)cn3)CCO4)cc1)=NC(Cc1ncco1)c1nnc(C)n1-2 (stereo partly shown) [Compound I-139]	< 500 nM	< 500 nM	< 500 nM	< 500 nM
Cc1sc2c(c1C)C(c1ccc(CCOC3CCN(c4ncc(C(=O)N[C@H]5C(C)(C)[C@H](Oc6ccc(C#N)c(Cl)c6)C5(C)C)cn4)CC3)cc1)=NC(Cc1ncco1)c1nnc(C)n1-2 (stereo partly shown) [Compound I-140]	< 500 nM	< 500 nM	< 500 nM	< 500 nM
Cc1sc2c(c1C)C(c1ccc(CN3CC4(CCN(c5ncc(C(=O)N[C@H]6C(C)(C)[C@H](Oc7ccc(C#N)c(Cl)c7)C6(C)C)cn5)CC4)C3)cc1)=N[C@@H](Cc1ncco1)c1nnc(C)n1-2 [Compound I-141]	> 3000 nM	< 500 nM	500 to 1500 nM	< 500 nM
Cc1sc2c(c1C)C(c1ccc(CC3CC4(CCN(c5ncc(C(=O)N[C@H]6C(C)(C)[C@H](Oc7ccc(C#N)c(Cl)c7)C6(C)C)cn5)CC4)C3)cc1)=N[C@@H](Cc1ncco1)c1nnc(C)n1-2 [Compound I-142]	> 3000 nM	> 3000 nM	> 3000 nM	< 500 nM
Cc1sc2c(c1C)C(c1ccc(CN3CC[C@@]4(CCCN(c5ncc(C(=O)N[C@H]6C(C)(C)[C@H](Oc7ccc(C#N)c(Cl)c7)C6(C)C)cn5)C4)C3)cc1)=N[C@@H](Cc1ncco1)c1nnc(C)n1-2 [Compound I-144]	500 to 1500 nM	< 500 nM	< 500 nM	< 500 nM
Cc1sc2c(c1C)C(c1ccc(CN3CC[C@]4(CCCN(c5ncc(C(=O)N[C@H]6C(C)(C)[C@H](Oc7ccc(C#N)c(Cl)c7)C6(C)C)cn5)C4)C3)cc1)=N[C@@H](Cc1ncco1)c1nnc(C)n1-2 [Compound I-145]	< 500 nM	< 500 nM	< 500 nM	< 500 nM
Cc1sc2c(c1C)C(c1ccc(CN3CCC4(CCCN(c5ncc(C(=O)N[C@H]6C(C)(C)[C@H](Oc7ccc(C#N)c(Cl)c7)C6(C)C)cn5)C4)C3)cc1)=N[C@H](Cc1ncco1)c1nnc(C)n1-2 (stereo partly shown) [Compound I-146]	< 500 nM	< 500 nM	500 to 1500 nM	< 500 nM
Cc1sc2c(c1C)C(c1ccc(CCN3CCC4(CCCN(c5ncc(C(=O)N[C@H]6C(C)(C)[C@H](Oc7ccc(C#N)c(Cl)c7)C6(C)C)cn5)C4)C3)cc1)=N[C@@H](Cc1ncco1)c1nnc(C)n1-2 (stereo partly shown) [Compound I-147]	< 500 nM	< 500 nM	500 to 1500 nM	< 500 nM
Cc1sc2c(c1C)C(c1ccc(CN3CC4(CCCN(c5ncc(C(=O)N[C@H]6C(C)(C)[C@H](Oc7ccc(C#N)c(Cl)c7)C6(C)C)cn5)C4)C3)cc1)=N[C@@H](Cc1ncco1)c1nnc(C)n1-2 [Compound I-148]	< 500 nM	< 500 nM	< 500 nM	< 500 nM
Cc1sc2c(c1C)C(c1ccc(CN3CC4(CCCN(c5ncc(C(=O)N[C@H]6C(C)(C)[C@H](Oc7ccc(C#N)c(Cl)c7)C6(C)C)cn5)C4)C3)cc1)=N[C@H](Cc1ncco1)c1nnc(C)n1-2 [Compound I-149]	> 3000 nM	500 to 1500 nM	> 3000 nM	< 500 nM

Second part, led by results:

GI50 (T47D cells)	GI50 (VCaP cells)	Compound	GI50 [1]	GI50 [2]
> 3000 nM	< 500 nM	Cc1sc2c(c1C)C(c1ccc(C3CC3C3CC4(CCN(c5ncc(C(=O)N[C@H]6C(C)(C)[C@H](Oc7ccc(C#N)c(Cl)c7)C6(C)C)cn5)CC4)C3)cc1)=N[C@H](Cc1ncco1)c1nnc(C)n1-2 (stereo partly shown) [Compound I-150]	> 3000 nM	< 500 nM
< 500 nM	< 500 nM	Cc1sc2c(c1C)C(c1ccc(CC3CC4(C3)CN(c3ncc(C(=O)N[C@H]5C(C)(C)[C@H](Oc6ccc(C#N)c(Cl)c6)C5(C)C)cn3)C4)cc1)=N[C@@H](Cc1ncco1)c1nnc(C)n1-2 [Compound I-151]	< 500 nM	< 500 nM
> 3000 nM	> 3000 nM	Cc1sc2c(c1C)C(c1ccc(CC3CC4(C3)CN(c3ncc(C(=O)N[C@H]5C(C)(C)[C@H](Oc6ccc(C#N)c(Cl)c6)C5(C)C)cn3)C4)cc1)=N[C@H](Cc1ncco1)c1nnc(C)n1-2 [Compound I-152]	> 3000 nM	< 500 nM
< 500 nM	< 500 nM	Cc1sc2c(c1C)C(c1ccc(CC3CN(C4CCN(c5ncc(C(=O)N[C@H]6C(C)(C)[C@H](Oc7ccc(C#N)c(Cl)c7)C6(C)C)cn5)C4)C3)cc1)=N[C@@H](Cc1ncco1)c1nnc(C)n1-2 (stereo partly shown) [Compound I-154]	< 500 nM	< 500 nM
> 3000 nM	> 3000 nM	Cc1sc2c(c1C)C(c1ccc(C[C@H]3C[C@@]4(CCCN(c5ncc(C(=O)N[C@H]6C(C)(C)[C@H](Oc7ccc(C#N)c(Cl)c7)C6(C)C)cn5)C4)C3)cc1)=N[C@@H](Cc1ncco1)c1nnc(C)n1-2 [Compound I-156]	> 3000 nM	< 500 nM
500 to 1500 nM	500 to 1500 nM	Cc1sc2c(c1C)C(c1ccc(C[C@H]3C[C@]4(CCCN(c5ncc(C(=O)N[C@H]6C(C)(C)[C@H](Oc7ccc(C#N)c(Cl)c7)C6(C)C)cn5)C4)C3)cc1)=N[C@@H](Cc1ncco1)c1nnc(C)n1-2 [Compound I-157]	> 3000 nM	< 500 nM
> 3000 nM	> 3000 nM	Cc1sc2c(c1C)C(c1ccc(C[C@H]3C[C@H]([C@H]4CCCN(c5ncc(C(=O)N[C@H]6C(C)(C)[C@H](Oc7ccc(C#N)c(Cl)c7)C6(C)C)cn5)C4)C3)cc1)=N[C@@H](Cc1ncco1)c1nnc(C)n1-2 [Compound I-159]	> 3000 nM	> 3000 nM
1500 to 3000 nM	> 3000 nM	Cc1sc2c(c1C)C(c1ccc(C[C@H]3C[C@@H]([C@H]4CCCN(c5ncc(C(=O)N[C@H]6C(C)(C)[C@H](Oc7ccc(C#N)c(Cl)c7)C6(C)C)cn5)C4)C3)cc1)=N[C@@H](Cc1ncco1)c1nnc(C)n1-2 [Compound I-160]	> 3000 nM	> 3000 nM
< 500 nM	< 500 nM	Cc1sc2c(c1C)C(c1ccc(C[C@H]3C[C@H]([C@@H]4CCCN(c5ncc(C(=O)N[C@H]6C(C)(C)[C@H](Oc7ccc(C#N)c(Cl)c7)C6(C)C)cn5)C4)C3)cc1)=N[C@@H](Cc1ncco1)c1nnc(C)n1-2 [Compound I-162]	< 500 nM	< 500 nM
1500 to 3000 nM	> 3000 nM	Cc1sc2c(c1C)C(c1ccc(C[C@H]3CCC4(CCCN(c5ncc(C(=O)N[C@H]6C(C)(C)[C@H](Oc7ccc(C#N)c(Cl)c7)C6(C)C)cn5)C4)C3)cc1)=N[C@@H](Cc1ncco1)c1nnc(C)n1-2 (stereo partly shown) [Compound I-163]	> 3000 nM	< 500 nM
500 to 1500 nM	500 to 1500 nM	Cc1sc2c(c1C)C(c1ccc(C[C@@H]3CC[C@@]4(CCCN(c5ncc(C(=O)N[C@H]6C(C)(C)[C@H](Oc7ccc(C#N)c(Cl)c7)C6(C)C)cn5)C4)C3)cc1)=N[C@@H](Cc1ncco1)c1nnc(C)n1-2 [Compound I-164]	> 3000 nM	< 500 nM
1500 to 3000 nM	500 to 1500 nM	Cc1sc2c(c1C)C(c1ccc(C[C@@H]3CC[C@]4(CCCN(c5ncc(C(=O)N[C@H]6C(C)(C)[C@H](Oc7ccc(C#N)c(Cl)c7)C6(C)C)cn5)C4)C3)cc1)=N[C@@H](Cc1ncco1)c1nnc(C)n1-2 [Compound I-165]	> 3000 nM	< 500 nM
